From patent publication EP0739882B1, “Novel aconitine compounds and analgesic/anti-inflammatory agent containing the same” (SANWA SHOYAKU KABUSHIKI KAISHA, priority 1991, dated 1993)

What was measured:
[1] = Property and solubility (qualitative solubility in solvents); assay type: physicochemical; settings: for Solubility: solvents in which insoluble: hexane and water
[2] = system: Male mice of the Std:ddY Strain; assay: Analgesic activity by the acetic acid-induced writhing method; assay type: in vivo; settings: Mus musculus; test compound s.c. 30 minutes before 0.7 % acetic acid i.p.; writhing counted for 10 minutes; Litchfield-Wilcoxon; 95 % confidence limits in brackets
Description: Experiment example 1 (Analgesic action)
Measurement of analgesic activity by the acetic acid-induced writhing method.
Male mice of the Std:ddY Strain (20 - 25g) were used. All mice were maintained at room temperature of 24 - 25 °C on a 12 hours light and dark cycle and were given food and water ad libitum. Test compound was used in 3 % suspension in gum arabic, 0.7 % acetic acid in 0.9 % physiological saline solution was injected i.p. (10ml / kg) at 30 minutes after test compound was administered s.c. After 10 minutes, the number of writhing movements was counted for a period of 10 minutes. 3 % gum arabic solution in 0.9 % physiological saline solution was used as a negative control. The ED50 values were calculated in accordance with the Litchfield-Wilcoxon's method based on judging to be positive in case of half and under the writhing number of negative control group.

[3] = Acute toxicity (LD50, s.c.); design: species or system mice; settings: mouse, in vivo, sc, mortality during 72 hours, Litchfield-Wilcoxon, read-out: LD50 value, mg/kg (95 % confidence limits)
Description: Experiment example 3 (Acute toxicity)
Male mice of the Std:ddY Strain (20 - 25g) were used. The LD50 values were calculated using the method of Litchfield-Wilcoxon from the mortality during 72 hours after test compound was administered s.c. The results are shown in Table 3.

In the case of “3,13-dideoxy-14-O-m-chlorobenzoylaconine”, the “Solubility: solvents in which soluble” value [1] is reported as “Soluble in ether, chloroform, benzene, ethanol, methanol, ethylacetate, pyridine and dimethyl sulfoxide” and the “Solubility: solvents in which insoluble” value [1] is reported as “Insoluble in hexane and water”.
In the case of `COCC12CN(C)C3C4C(OC)C1C3(C(OC)CC2O)C1CC2(O)C(OC)C(O)C4(O)C1C2OC(=O)c1ccc(Cl)cc1` (stereo not shown) [14-O-p-chlorobenzoylmesaconine], the ED50 [2] is reported as 5.85 mg/kg, the LD50 at 72 h [3] is reported as > 30 mg/kg and the “Solubility: solvents in which soluble” value [1] is reported as “Soluble in ether, chloroform, benzene, ethanol, methanol, acetone, ethylacetate, pyridine and dimethyl sulfoxide”. The “Solubility: solvents in which insoluble” value [1] was “Insoluble in hexane and water”.
With `CCN1CC2(COC)C(O)CC(OC)C34C5CC6(O)C(OC)C(O)C(O)(C5C6OC(=O)c5ccc(Br)cc5)C(C(OC)C23)C14` (stereo not shown) [14-O-p-bromobenzoylaconine] the ED50 [2] was 6.42 mg/kg, the LD50 at 72 h [3] was > 30 mg/kg and the “Solubility: solvents in which soluble” value [1] was “Soluble in ether, chloroform, benzene, ethanol, methanol, acetone, ethylacetate, pyridine and dimethyl sulfoxide”. The “Solubility: solvents in which insoluble” value [1] was “Insoluble in hexane and water”.
In the case of `CCN1CC2(COC)C(O)CC(OC)C34C5CC6(O)C(OC)C(O)C(O)(C5C6OC(=O)c5ccc(F)cc5)C(C(OC)C23)C14` (stereo not shown) [14-O-p-fluorobenzoylaconine], the ED50 [2] is reported as 8.26 mg/kg, the LD50 at 72 h [3] is reported as > 30 mg/kg and the “Solubility: solvents in which soluble” value [1] is reported as “Soluble in ether, chloroform, benzene, ethanol, methanol, acetone, ethylacetate, pyridine and dimethyl sulfoxide”. The “Solubility: solvents in which insoluble” value [1] was “Insoluble in hexane and water”.
With `CCN1CC2(COC)CCC(OC)C34C5CC6C(OC)C(O)C(C5C6OC(=O)c5cccc(Cl)c5)C(C(OC)C23)C14` (stereo not shown) [3,8,13-trideoxy-14-O-m-chlorobenzoylaconine] the “Solubility: solvents in which soluble” value [1] was “Soluble in ether, chloroform, benzene, ethanol, methanol, ethylacetate, pyridine and dimethyl sulfoxide” and the “Solubility: solvents in which insoluble” value [1] was “Insoluble in hexane and water”.
In the case of `CCN1CC2(COC)CCC(OC)C34C5CC6(O)C(OC)C(=O)C(C5C6OC(=O)c5cccc(Cl)c5)C(C(OC)C23)C14` (stereo not drawn) [3-deoxy-14-O-m-chlorobenzoyl-16-epi-pyroaconine], the ED50 [2] is reported as 10.1 mg/kg, the LD50 at 72 h [3] is reported as > 20 mg/kg and the “Solubility: solvents in which soluble” value [1] is reported as “Soluble in ether, chloroform, benzene, ethanol, methanol, ethylacetate, pyridine and dimethyl sulfoxide”. For the same compound, the “Solubility: solvents in which insoluble” value [1] was “Insoluble in hexane and water”.
With `CCN1CC2(COC)C(O)CC(OC)C34C5CC6(O)C(OC)C(=O)C(C5C6OC(=O)c5cccc(Cl)c5)C(C(OC)C23)C14` (stereo not drawn) [14-O-m-chlorobenzoyl-16-epi-pyroaconine] the ED50 [2] was 11.9 mg/kg, the LD50 at 72 h [3] was > 20 mg/kg and the “Solubility: solvents in which soluble” value [1] was “Soluble in ether, chloroform, benzene, ethanol, methanol, ethylacetate, pyridine and dimethyl sulfoxide”. The “Solubility: solvents in which insoluble” value [1] was “Insoluble in hexane and water”.
For 14-O-m-chlorobenzoylaconine, the “Solubility: solvents in which soluble” value [1] was “Soluble in ether, chloroform, benzene, ethanol, methanol, ethylacetate, pyridine and dimethyl sulfoxide” and the “Solubility: solvents in which insoluble” value [1] was “Insoluble in hexane and water”.
In the case of `CCN1CC2(COC)CCC(OC)C34C5CC6C(OC)C(=O)C(C5C6OC(=O)c5cccc(Cl)c5)C(C(OC)C23)C14` (stereo not drawn) [3,13-dideoxy-14-O-m-chlorobenzoyl-16-epi-pyroaconine], the ED50 [2] is reported as 11 mg/kg, the LD50 at 72 h [3] is reported as > 20 mg/kg and the “Solubility: solvents in which soluble” value [1] is reported as “Soluble in ether, chloroform, benzene, ethanol, methanol, ethylacetate, pyridine and dimethyl sulfoxide”. For the same compound, the “Solubility: solvents in which insoluble” value [1] was “Insoluble in hexane and water”.
For 3,8-dideoxy-14-O-m-chlorobenzoylaconine, the “Solubility: solvents in which soluble” value [1] was “Soluble in ether, chloroform, benzene, ethanol, methanol, ethylacetate, pyridine and dimethyl sulfoxide” and the “Solubility: solvents in which insoluble” value [1] was “Insoluble in hexane and water”.
For 3-deoxy-14-O-m-chlorobenzoylaconine, the “Solubility: solvents in which soluble” value [1] was “Soluble in ether, chloroform, benzene, ethanol, methanol, ethylacetate, pyridine and dimethyl sulfoxide” and the “Solubility: solvents in which insoluble” value [1] was “Insoluble in hexane and water”.
